Results taken from patent US20260209247A1, “Substituted Tricyclic Compounds” (Lupin Limited, priority 2019, published 2026).

test system: pERK after EGF stimulation in DLD1 cells; assay: ERK phosphorylation assay (alphascreen pERK); assay type: cell-based; conditions: Homo sapiens, DLD-1, 2 h compound, 200 ng/ml hEGF for 5 minutes, read-out: ERK phosphorylation inhibition IC50
Procedure: Compounds were tested for their ability to inhibit pERK after EGF stimulation in DLD1 cells. Cells were seeded at 0.2 million cells per well in 96 well cell binding tissue culture plate in 100 μL complete media and were allowed to settle overnight (16 to 20 h). On the following day, cells were treated with various concentrations of test compounds for 2 h followed by stimulation with 200 ng/ml hEGF (diluted in PBS) for 5 minutes. Cells were then washed once with PBS and lysed in freshly prepared lysis buffer (provided with alphascreen surefire ERK1/2 p-T202/Y204 assay kit, cat no: TGRESB10K, Perkin Elmer). Lysis was carried out in plate shaker for 10-15 mins. Lysate was transferred to […] white opti-plate (Perkin Elmer) and alphascreen for pERK was carried out as per manufacturer's instructions. Plate was read after 2 h incubation in plate shaker at […] 300 RPM, 25-28° C. The difference between the unstimulated and stimulated Vehicle control is considered as 100% ERK phosphorylation, and % inhibition of compounds is calculated accordingly.

| Structure (SMILES) | IC50 |
| --- | --- |
| Cc1nc(NC(C)c2cc(N)cc(C(F)F)c2)c2cc3c(cc2n1)C(C)(C)C(=O)N3C (single isomer, unassigned) [Compound 69, (R/S)-4-((1-(3-amino-5-(difluoromethyl)phenyl)ethyl)amino)-2,6,8,8-tetramethyl-6H-pyrrolo[2,3-g]quinazolin-7(8H)-one] | 1 to 200 nM |
| COC1(C)C(=O)N(C)c2cc3nc(C)nc(N[C@H](C)c4cccc(C(F)(F)C(C)(C)O)c4F)c3cc21 (single isomer, unassigned) [Compound 96b] | 1 to 200 nM |
| COCCC1(OC)C(=O)N(C)c2cc3c(N[C@H](C)c4cccc(C(F)(F)C(C)(C)O)c4F)nc(C)nc3cc21 (single isomer, unassigned) [Compound 132a] | 1 to 200 nM |
| Cc1nc(N[C@H](C)c2cccc(C(F)(F)C(C)(C)O)c2F)c2cc3c(cc2n1)OC(C)(C)C(N1CCOCC1)=N3 [Compound 26, (R)-1,1-Difluoro-1-(2-fluoro-3-(1-((2,8,8-trimethyl-7-morpholino-8H [1,4]oxazino[3,2-g]quinazolin-4-yl)amino)ethyl)phenyl)-2-methylpropan-2-ol] | 201 to 500 nM |
| COC1(C)C(=O)N(C)c2cc3nc(C)nc(N[C@H](C)c4cc(N)cc(C(F)(F)F)c4)c3cc21 (mixture of isomers) [Compound 137, 4—(((R)-1-(3-amino-5-(trifluoromethyl)phenyl)ethyl)amino)-6-methoxy-2,6,8-trimethyl-6,8-dihydro-7H-pyrrolo[3,2-g]quinazolin-7-one] | 1 to 200 nM |
| CCc1nc(N[C@H](C)c2cc(N)cc(C(F)(F)F)c2)c2cc3c(cc2n1)OCC(=O)N3C [Compound 14, (R)-4-((1-(3-amino-5-(trifluoromethyl)phenyl)ethyl)amino)-2-ethyl-6-methyl-6H-[1,4]oxazino[3,2-g]quinazolin-7(8H)-one] | 1 to 200 nM |
| Cc1nc(NC(C)c2cccc(C(F)(F)F)c2F)c2cc3c(cc2n1)C(C)(C)C(=O)N3C (single isomer, unassigned) [Compound 134, (R/S)-4-((1-(2-fluoro-3-(trifluoromethyl)phenyl)ethyl)amino)-2,6,8,8-tetramethyl-6,8-dihydro-7H-pyrrolo[2,3-g]quinazolin-7-one] | 201 to 500 nM |
| Cc1nc(N[C@H](C)c2cc(N)cc(C(F)(F)F)c2)c2cc3c(cc2n1)OCCN3CC1CCOC1 (single isomer, unassigned) [Compound 43] | 1 to 200 nM |
| Cc1nc(N[C@H](C)c2cccc(C(F)(F)C(C)(C)O)c2F)c2cc3c(cc2n1)n(C)c(=O)c(=O)n3C [Compound 40, (R)-4-((1-(3-(1,1-Difluoro-2-hydroxy-2-methylpropyl)-2-fluorophenyl)ethyl)amino)-2,6,9-trimethyl-6,9-dihydropyrazino[2,3-g]quinazoline-7,8-dione] | 201 to 500 nM |
| Cc1nc(N[C@H](C)c2cccc(C(F)(F)C(C)(C)O)c2)c2cc3c(cc2n1)OC(C)(C)C(=O)N3C [Compound 57, (R)-4-((1-(3-(1,1-difluoro-2-hydroxy-2-methylpropyl)phenyl)ethyl)amino)-2,6,8,8-tetramethyl-6H-[1,4]oxazino[3,2-g]quinazolin-7(8H)-one] | 1 to 200 nM |
| COCC(C)(O)C(F)(F)c1cccc([C@@H](C)Nc2nc(C)nc3cc4c(cc23)N(C)C(=O)C4(C)C)c1F (single isomer, unassigned) [Compound 127a] | 201 to 500 nM |
| CNC[C@](C)(O)C(F)(F)c1cccc([C@@H](C)Nc2nc(C)nc3cc4c(cc23)N(C)C(=O)C4(C)C)c1F (racemic) [Compound 130b, 4-(((R)-1-(3-((S/R)-1,1-difluoro-2-hydroxy-2-methyl-3-(methylamino)propyl)-2-fluorophenyl)ethyl)amino)-2,6,8,8-tetramethyl-6,8-dihydro-7H-pyrrolo[2,3-g]quinazolin-7-one] | 1 to 200 nM |
| CO[C@]1(C)C(=O)N(C)c2cc3c(N[C@H](C)c4cccc(C(F)(F)[C@](C)(O)CO)c4F)nc(C)nc3cc21 (racemic) [Compound 103, (S/R)-4-(((R/S)-1-(3-((R/S)-1,1-difluoro-2,3-dihydroxy-2-methylpropyl)-2-fluorophenyl)ethyl)amino)-8-methoxy-2,6,8-trimethyl-6,8-dihydro-7H-pyrrolo[2,3-g]quinazolin-7-one] | 201 to 500 nM |

Next, values leading:

| IC50 | Structure (SMILES) |
| --- | --- |
| 1 to 200 nM | Cc1nc(N[C@H](C)c2cccc(C(F)(F)C(C)(C)O)c2F)c2cc3c(cc2n1)OC(C)(C)C(=O)N3C [Compound 33, (R)-4-((1-(3-(1,1-Difluoro-2-hydroxy-2-methylpropyl)-2-fluorophenyl)ethyl)amino)-2,6,8,8-tetramethyl-6H-[1,4]oxazino[3,2-g]quinazolin-7(8H)-one] |
| 201 to 500 nM | Cc1nc(N[C@H](C)c2cccc(C(F)(F)C(C)(C)O)c2F)c2cc3c(cc2n1)C(C)(F)C(=O)N3C (single isomer, unassigned) [Compound 116a] |
| 1 to 200 nM | Cc1nc(N[C@H](C)c2cccc(C(F)(F)C(C)(C)O)c2F)c2cc3c(cc2n1)C(C)(C)C(=O)N3C1CC1 [Compound 65, (R)-6-cyclopropyl-4-((1-(3-(1,1-difluoro-2-hydroxy-2-methylpropyl)-2-fluorophenyl)ethyl)amino)-2,8,8-trimethyl-6,8-dihydro-7H-pyrrolo[2,3-g]quinazolin-7-one] |
| 1 to 200 nM | CCC1(OC)C(=O)N(C)c2cc3c(N[C@H](C)c4cccc(C(F)(F)C(C)(C)O)c4F)nc(C)nc3cc21 (single isomer, unassigned) [Compound 126a] |
| 201 to 500 nM | Cc1nc(N[C@H](C)c2cccc(C(F)(F)[C@](C)(O)CO)c2F)c2cc3c(cc2n1)C(C)(C)C(=O)N3C (single isomer, unassigned) [Compound 76b] |
| 201 to 500 nM | Cc1nc(N[C@H](C)c2cccc(C(F)(F)C(C)(C)O)c2F)c2cc3c(cc2n1)N(C)C(C)(C)N3C [Compound 108, (R)-1,1-difluoro-1-(2-fluoro-3-(1-((1,2,2,3,6-pentamethyl-2,3-dihydro-1H-imidazo[4,5-g]quinazolin-8-yl)amino)ethyl)phenyl)-2-methylpropan-2-ol] |
| 1 to 200 nM | Cc1nc(N[C@H](C)c2cccc(C(F)(F)C(C)(C)O)c2F)c2cc3c(cc2n1)[C@](C)(F)C(=O)N3C (single isomer, unassigned) [Compound 116b] |
| 201 to 500 nM | Cc1nc(NC(C)c2cccc(C(O)(CO)C(F)(F)F)c2F)c2cc3c(cc2n1)OC(C)(C)C(=O)N3C (racemic) [Compound 22, 4-(((R&S)-1-(2-Fluoro-3-((R&S)-1,1,1-trifluoro-2,3-dihydroxypropan-2-yl)phenyl)ethyl)amino)-2,6,8,8-tetramethyl-6H-[1,4]oxazino[3,2-g]quinazolin-7(8H)-one] |
| 1 to 200 nM | Cc1nc(N[C@H](C)c2cccc(C(F)(F)C(C)(C)O)c2F)c2cc3c(cc2n1)O[C@@H](C(C)C)C(=O)N3C (single isomer, unassigned) [Compound 32a] |
| 201 to 500 nM | Cc1nc(N[C@H](C)c2cccc(C(F)(F)C(C)(C)O)c2F)c2cc3c(cc2n1)C(F)(F)C(=O)N3C [Compound 117, (R)-4-((1-(3-(1,1-difluoro-2-hydroxy-2-methylpropyl)-2-fluorophenyl)ethyl)amino)-8,8-difluoro-2,6-dimethyl-6,8-dihydro-7H-pyrrolo[2,3-g]quinazolin-7-one] |
| 201 to 500 nM | Cc1nc(N[C@H](C)c2cccc(C(F)(F)C(C)(C)O)c2F)c2cc3c(cc2n1)OCC(=O)N3C [Compound 3, (R)-4-((1-(3-(1,1-difluoro-2-hydroxy-2-methylpropyl)-2-fluorophenyl)ethyl)amino)-2,6-dimethyl-6H-[1,4]oxazino[3,2-g]quinazolin-7(8H)-one] |
| 201 to 500 nM | CCN1C(=O)C(C)(C)Oc2cc3nc(C)nc(N[C@H](C)c4cccc(C(F)(F)C(C)(C)O)c4F)c3cc21 [Compound 41, (R)-4-((1-(3-(1,1-difluoro-2-hydroxy-2-methylpropyl)-2-fluorophenyl)ethyl)amino)-6-ethyl-2,8,8-trimethyl-6H-[1,4]oxazino[3,2-g]quinazolin-7(8H)-one] |
| 1 to 200 nM | Cc1nc(N[C@H](C)c2cccc(C(F)(F)C(C)(C)O)c2F)c2cc3c(cc2n1)C(C)(C)C(=O)N3C(C)C [Compound 78, (R)-4-((1-(3-(1,1-difluoro-2-hydroxy-2-methylpropyl)-2-fluorophenyl)ethyl)amino)-6-isopropyl-2,8,8-trimethyl-6H-pyrrolo[2,3-g]quinazolin-7(8H)-one] |
| 1 to 200 nM | COCCC1(C)C(=O)N(C)c2cc3c(N[C@H](C)c4cccc(C(F)(F)C(C)(C)O)c4F)nc(C)nc3cc21 (single isomer, unassigned) [Compound 123b] |
| 201 to 500 nM | Cc1nc(N[C@H](C)c2cccc(C(F)(F)C(C)(C)O)c2F)c2cc3c(cc2n1)oc(=O)n3C [Compound 111, (R)-8-((1-(3-(1,1-difluoro-2-hydroxy-2-methylpropyl)-2-fluorophenyl)ethyl)amino)-1,6-dimethyloxazolo[4,5-g]quinazolin-2(1H)-one] |
| 1 to 200 nM | Cc1nc(N[C@H](C)c2cccc(C(F)(F)[C@@](C)(O)CN(C)C)c2F)c2cc3c(cc2n1)C(C)(C)C(=O)N3C (racemic) [Compound 129b, 4-(((R)-1-(3-((S/R)-3-(dimethylamino)-1,1-difluoro-2-hydroxy-2-methylpropyl)-2-fluorophenyl)ethyl)amino)-2,6,8,8-tetramethyl-6,8-dihydro-7H-pyrrolo[2,3-g]quinazolin-7-one] |
| 1 to 200 nM | Cc1nc(N[C@H](C)c2cccc(C(F)(F)C(C)(C)O)c2F)c2cc3c(cc2n1)C1(CC1)C(=O)N3C [Compound 79, (R)-4′-((1-(3-(1,1-difluoro-2-hydroxy-2-methylpropyl)-2-fluorophenyl)ethyl)amino)-2′,6′-dimethylspiro[cyclopropane-1,8′-pyrrolo[2,3-g]quinazolin]-7′(6′H)-one] |
